The source made the active and inactive calls. The rule behind the calls is not given here.
How the values were obtained:
[1] = Toxicity in nude mouse xenografted with human SW620/5-FU cells assessed as morphological changes in lung at 1 to 10 mg/kg/day, iv by hematoxylin-eosin staining based analysis; assay type: organism-based; conditions: in vivo, dose 1-10 mg/kg/day
HCT-116 [2] = assay: cells; conditions: Homo sapiens, HCT-116, 48 h
Description: Reversal of 5-FU resistance in human HCT-116 cells overexpressing DPD assessed as reduction in 5-Fluorouracil IC50 at 5 uM incubated for 48 hrs (Rvb = 1836.66 +/- 87.95 %)

SW620/5-FU [3] = assay: Induction of apoptosis in human SW620/5-FU cells assessed as early apoptotic cells at 10 uM incubated for 24 hrs in presence of 5-FU by Annexin-V/PI staining based flow cytometry assay (reference value: 2.73%); assay type: functional
SW620/5-FU [4] = assay: Antitumor activity against human SW620/5-FU cells xenografted in nude mouse assessed as tumor volume at 5 mg/kg/day, iv measured on day 15 in presence of 5-FU (reference value: 1991 +/- 469 mm3); assay type: functional; conditions: time 15 day
Mus musculus [5] = assay: In vivo inhibition of liver DPD expression in human SW620/5-FU cells xenografted in nude mouse at 1 to 10 mg/kg/day by Western blot analysis; assay type: functional, organism-based; conditions: dose 1-10 mg/kg/day
HT-29 [6] = assay: Antiproliferative activity against human HT-29 cells assessed as reduction in cell viability incubated for 48 hrs by MTT assay; assay type: functional, cell-based; conditions: HT-29, 48 h
SW620/5-FU [7] = assay: Induction of apoptosis in human SW620/5-FU cells assessed as late apoptotic cells at 10 uM incubated for 24 hrs in presence of 5-FU by Annexin-V/PI staining based flow cytometry assay (reference value: 2.97%); assay type: functional
HCT-116 [8] = assay: Reversal of 5-FU resistance in human HCT-116 cells overexpressing DPD assessed as fold reduction in 5-Fluorouracil IC50 at 2 uM incubated for 48 hrs; assay type: functional
SW620/5-FU [9] = assay: Antitumor activity against human SW620/5-FU cells xenografted in nude mouse assessed as tumor volume at 10 mg/kg/day, iv measured on day 15 in presence of 5-FU (reference value: 1991 +/- 469 mm3); assay type: functional; conditions: time 15 day
[10] = Cytotoxicity against human NCM460 cells assessed as reduction in cell viability incubated for 48 hrs by MTT assay; assay type: toxicity, cell-based
SW620/5-FU [11] = assay: Induction of apoptosis in human SW620/5-FU cells at 20 to 40 uM in presence of 5-FU by Hochest33342 staining based assay; assay type: functional, cell-based; conditions: dose 20-40 µM
SW620/5-FU [12] = assay: Antitumor activity against human SW620/5-FU cells xenografted in nude mouse assessed as tumor volume at 1 mg/kg/day, iv measured on day 15 in presence of 5-FU (reference value: 1991 +/- 469 mm3); assay type: functional; conditions: time 15 day
SW620/5-FU [13] = assay: Induction of apoptosis in human SW620/5-FU cells assessed as early apoptotic cells at 10 uM incubated for 24 hrs by Annexin-V/PI staining based flow cytometry assay (reference value: 2.73%); assay type: functional
HT-29 [14] = assay: cells; conditions: Homo sapiens, HT-29, 48 h
Description: Reversal of 5-FU resistance in human HT-29 cells assessed as reduction in 5-Fluorouracil IC50 at 2 uM incubated for 48 hrs (Rvb = 2768.36 +/- 89.25 %)

SW620/5-FU [15] = assay: Inhibition of FBAL stimulated DPD expression in human SW620/5-FU cells at 10 uM incubated for 72 hrs by Western blot analysis; assay type: functional, cell-based
HT-29 [16] = assay: cells; conditions: Homo sapiens, HT-29, 48 h; remark: listed apart in the source
Description: Reversal of 5-FU resistance in human HT-29 cells assessed as reduction in 5-Fluorouracil IC50 at 5 uM incubated for 48 hrs (Rvb = 2768.36 +/- 89.25 %)

SW620/5-FU [17] = assay: Induction of apoptosis in human SW620/5-FU cells assessed as necrotic cells at 20 uM incubated for 24 hrs by Annexin-V/PI staining based flow cytometry assay (reference value: 0%); assay type: functional
SW620/5-FU [18] = assay: cells; conditions: Homo sapiens, 48 h
SW620/5-FU [19] = assay: Induction of apoptosis in human SW620/5-FU cells assessed as necrotic cells at 20 uM incubated for 24 hrs in presence of 5-FU by Annexin-V/PI staining based flow cytometry assay (reference value: 0%); assay type: functional
HT-29 [20] = assay: Reversal of 5-FU resistance in human HT-29 cells assessed as fold reduction in 5-Fluorouracil IC50 at 2 uM incubated for 48 hrs; assay type: functional
SW620/5-FU [21] = assay: cells; conditions: Homo sapiens, 48 h; remark: listed apart in the source
SW620/5-FU [22] = assay: Induction of apoptosis in human SW620/5-FU cells assessed as early apoptotic cells at 20 uM incubated for 24 hrs in presence of 5-FU by Annexin-V/PI staining based flow cytometry assay (reference value: 2.73%); assay type: functional
SW620/5-FU [23] = assay: Induction of apoptosis in human SW620/5-FU cells assessed as late apoptotic cells at 20 uM incubated for 24 hrs by Annexin-V/PI staining based flow cytometry assay (reference value: 2.97%); assay type: functional
SW620/5-FU [24] = assay: Induction of apoptosis in human SW620/5-FU cells assessed as necrotic cells at 10 uM incubated for 24 hrs by Annexin-V/PI staining based flow cytometry assay (reference value: 0%); assay type: functional
SW620/5-FU [25] = assay: Antitumor activity against human SW620/5-FU cells xenografted in nude mouse assessed as tumor growth inhibition at 5 mg/kg/day, iv in presence of 5-FU; assay type: functional; conditions: read-out: TGI
Mus musculus [26] = assay: In vivo inhibition of tumor DPD expression in human SW620/5-FU cells xenografted in nude mouse at 1 to 10 mg/kg/day by immunohistochemistry analysis; assay type: functional, organism-based; conditions: dose 1-10 mg/kg/day
SW620/5-FU [27] = assay: Antitumor activity against human SW620/5-FU cells xenografted in nude mouse assessed as tumor wight at 1 mg/kg/day, iv in presence of 5-FU (reference value: 1.3 +/-0.6 g); assay type: functional
[28] = molecular target: Sphingosine 1-phosphate receptor 2 (Homo sapiens, UniProt O95136); assay: Inhibition of FBAL stimulated S1PR2 in human SW620/5-FU cells incubated for 72 hrs by Western blot analysis; assay type: cell-based; conditions: dose 5-15 µM, DDE = dose-dependent effect
SW620/5-FU [29] = assay: Downregulation of DPD expression in human SW620/5-FU cells incubated for 12 hrs by Western blot analysis; assay type: functional, cell-based; conditions: dose 2.5-20 µM, DDE = dose-dependent effect
[30] = Metabolic stability in rat liver homogenate assessed as compound remaining at 1 mg/ml measured after 48 hrs by HPLC analysis; assay type: ADME, tissue-based; conditions: read-out: Stability
HCT-116 [31] = assay: Reversal of 5-FU resistance in human HCT-116 cells overexpressing DPD assessed as reduction in cell viability incubated for 48 hrs in presence of 5-FU by MTT assay; assay type: functional, cell-based; conditions: HCT-116, 48 h
SW620/5-FU [32] = assay: Downregulation of JMJD3 expression in human SW620/5-FU cells incubated for 12 hrs by Western blot analysis; assay type: functional, cell-based; conditions: dose 2.5-20 µM, DDE = dose-dependent effect
HT-29 [33] = assay: Reversal of 5-FU resistance in human HT-29 cells assessed as fold reduction in 5-Fluorouracil IC50 at 5 uM incubated for 48 hrs; assay type: functional
SW620/5-FU [34] = assay: Antitumor activity against human SW620/5-FU cells xenografted in nude mouse assessed as tumor volume at 1 mg/kg/day, iv measured on day 1 in presence of 5-FU (reference value: 105 +/- 14 mm3); assay type: functional; conditions: time 1 day
SW620/5-FU [35] = assay: Induction of apoptosis in human SW620/5-FU cells assessed as late apoptotic cells at 10 uM incubated for 24 hrs by Annexin-V/PI staining based flow cytometry assay (reference value: 2.97%); assay type: functional
SW620/5-FU [36] = assay: Antiproliferative activity against human SW620/5-FU cells assessed as reduction in cell viability incubated for 48 hrs by MTT assay; assay type: functional, cell-based

Chain of Sphingosine 1-phosphate receptor 2 (O95136 whole entry): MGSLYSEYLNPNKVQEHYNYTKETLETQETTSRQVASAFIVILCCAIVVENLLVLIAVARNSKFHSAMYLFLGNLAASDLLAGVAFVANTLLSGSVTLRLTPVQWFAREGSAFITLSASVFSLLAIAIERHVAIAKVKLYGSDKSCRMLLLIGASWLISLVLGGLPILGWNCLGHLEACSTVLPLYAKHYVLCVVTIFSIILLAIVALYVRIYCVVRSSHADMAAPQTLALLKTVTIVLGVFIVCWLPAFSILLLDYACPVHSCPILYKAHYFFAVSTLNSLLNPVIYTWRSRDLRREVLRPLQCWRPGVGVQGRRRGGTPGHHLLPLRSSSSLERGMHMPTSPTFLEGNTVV

**Q.** For `CCC(CC)CN1CCN(C(=O)Nc2cc(Oc3ccc(F)cc3)cc(Oc3ccc(C(=O)NC)cc3)c2)CC1`, which Activity [1] is on record?
**A.** Non-Toxic

**Q.** What about the IC50 (HCT-116 [2]) of the same compound?
**A.** 45.1 µM

**Q.** What about the Activity (SW620/5-FU [3]) of the same compound?
**A.** 4.41%

**Q.** What about the Activity (SW620/5-FU [4]) of the same compound?
**A.** 662 mm3

**Q.** What about the inhibition (Mus musculus [5]) of the same compound?
**A.** Active

**Q.** What about the IC50 (HT-29 [6]) of the same compound?
**A.** > 100 µM

**Q.** And the Activity (SW620/5-FU [7])?
**A.** 7.76%

**Q.** What about the “fold change (FC)” value (HCT-116 [8]) of the same compound?
**A.** 33

**Q.** And the Activity (SW620/5-FU [9])?
**A.** 521 mm3

**Q.** And the IC50 at 48 hrs [10]?
**A.** > 100 µM

**Q.** What about the Activity (SW620/5-FU [11]) of the same compound?
**A.** Active

**Q.** What about the Activity (SW620/5-FU [12]) of the same compound?
**A.** 1006 mm3

**Q.** And the Activity (SW620/5-FU [13])?
**A.** 3.41%

**Q.** And the IC50 (HT-29 [14])?
**A.** 42.1 µM

**Q.** And the inhibition (SW620/5-FU [15])?
**A.** Active

**Q.** What about the IC50 (HT-29 [16]) of the same compound?
**A.** 21.8 µM

**Q.** And the Activity (SW620/5-FU [17])?
**A.** 0.086%

**Q.** And the IC50 (SW620/5-FU [18])?
**A.** 36.8 µM

**Q.** What about the Activity (SW620/5-FU [19]) of the same compound?
**A.** 0.076%

**Q.** What about the “fold change (FC)” value (HT-29 [20]) of the same compound?
**A.** 66

**Q.** What about the IC50 (SW620/5-FU [21]) of the same compound?
**A.** 17.6 µM

**Q.** And the Activity (SW620/5-FU [22])?
**A.** 28.6%

**Q.** What about the Activity (SW620/5-FU [23]) of the same compound?
**A.** 4.01%

**Q.** And the Activity (SW620/5-FU [24])?
**A.** 0.042%

**Q.** And the inhibition in vivo at 5 mg/kg/day (SW620/5-FU [25])?
**A.** 66.8%

**Q.** What about the inhibition (Mus musculus [26]) of the same compound?
**A.** Active

**Q.** And the Activity (SW620/5-FU [27])?
**A.** 0.6 g

**Q.** And the inhibition [28]?
**A.** Dde

**Q.** What about the Activity (SW620/5-FU [29]) of the same compound?
**A.** Dde

**Q.** And the remaining at 48 h, 1 mg/ml [30]?
**A.** 68.9%

**Q.** What about the IC50 (HCT-116 [31]) of the same compound?
**A.** 6.42 µM

**Q.** What about the Activity (SW620/5-FU [32]) of the same compound?
**A.** Dde

**Q.** And the “fold change (FC)” value (HT-29 [33])?
**A.** 127

**Q.** And the Activity (SW620/5-FU [34])?
**A.** 104 mm3

**Q.** And the Activity (SW620/5-FU [35])?
**A.** 2.76%

**Q.** What about the IC50 (SW620/5-FU [36]) of the same compound?
**A.** > 100 µM

Reference: ChEMBL document CHEMBL5096216, “Rational Design, Synthesis, and Biological Evaluation of Novel S1PR2 Antagonists for Reversing 5-FU-Resistance in Colorectal Cancer” (J Med Chem, 2022)
